Measurements published in PubChem BioAssay AID1259407 (Chemical Carcinogenesis Research Information System (CCRIS), 2018).
Active and inactive are the calls of the source. How the calls were made is not given here.

Tested on: CCRIS mutagenicity, Ames/micronucleus/aberration tests
Test: CCRIS mutagenicity studies
[1] = Test System: AMES SALMONELLA TYPHIMURIUM, Strain/Indicator: TA100, Metabolic Activation: RAT, LIVER, S-9, AROCLOR 1254, Method: STANDARD PLATE
[2] = Test System: AMES SALMONELLA TYPHIMURIUM, Strain/Indicator: TA98, Metabolic Activation: NONE, Method: STANDARD PLATE
[3] = Test System: AMES SALMONELLA TYPHIMURIUM, Strain/Indicator: TA100, Metabolic Activation: NONE, Method: STANDARD PLATE

## CC(C)NCC(O)c1ccc(NS(C)(=O)=O)cc1 (centres undefined)
Test System: AMES SALMONELLA TYPHIMURIUM, Strain/Indicator: TA98, Metabolic Activation: NONE
  mutagenic call: inactive; negative
Test System: AMES SALMONELLA TYPHIMURIUM, Strain/Indicator: TA98, Metabolic Activation: RAT, LIVER, S-9, AROCLOR 1254
  mutagenic call: inactive; negative
Test System: AMES SALMONELLA TYPHIMURIUM, Strain/Indicator: TA100, Metabolic Activation: NONE
  mutagenic call: inactive; negative
Test System: AMES SALMONELLA TYPHIMURIUM, Strain/Indicator: TA100, Metabolic Activation: RAT, LIVER, S-9, AROCLOR 1254
  mutagenic call: inactive; negative
Test System: AMES SALMONELLA TYPHIMURIUM, Strain/Indicator: TA1535, Metabolic Activation: NONE
  mutagenic call: inactive; negative
Test System: AMES SALMONELLA TYPHIMURIUM, Strain/Indicator: TA1535, Metabolic Activation: RAT, LIVER, S-9, AROCLOR 1254
  mutagenic call: inactive; negative
Test System: AMES SALMONELLA TYPHIMURIUM, Strain/Indicator: TA1537, Metabolic Activation: NONE
  mutagenic call: inactive; negative
Test System: AMES SALMONELLA TYPHIMURIUM, Strain/Indicator: TA1537, Metabolic Activation: RAT, LIVER, S-9, AROCLOR 1254
  mutagenic call: inactive; negative
Test System: UDS HUMAN HEPATOCYTES, Strain/Indicator: THY INCORP, Metabolic Activation: NONE, Method: AUTORADIOGRAPHY
  mutagenic call: inactive; negative
Test System: UDS RAT HEPATOCYTES, Strain/Indicator: THY INCORP, Metabolic Activation: NONE, Method: AUTORADIOGRAPHY
  mutagenic call: inactive; negative

## O=S(=O)(O)NO
Test System: AMES SALMONELLA TYPHIMURIUM, Strain/Indicator: G46, Metabolic Activation: RAT, LIVER, S-9, AROCLOR 1254, Method: STANDARD PLATE
  mutagenic call: inactive; negative
[1]
  mutagenic call: inactive; negative

## C/C=C1/C[C@@H](C)[C@](O)(CO)C(=O)OCC2=CC[N+]3([O-])CC[C@@H](OC1=O)[C@@H]23 (some centres undefined)
Test System: AMES SALMONELLA TYPHIMURIUM, Strain/Indicator: TA100, Metabolic Activation: RAT, LIVER, S-9, SODIUM PHENOBARBITAL AND BETA-NAPHTHOFLAVONE, Method: PREINCUBATION
  mutagenic call: inactive; negative

## OC[C@H]1O[C@@H](OC2[C@@H](CO)O[C@H](O)[C@H](O)[C@H]2O)[C@H](O)[C@@H](O)C1O[C@@H]1O[C@H](CO)[C@@H](O)[C@H](O)[C@H]1O (some centres undefined)
End Point: IN VIVO CHROMOSOMAL ABERRATIONS, Test System: BONE MARROW CELLS, Species: MOUSE, Strain/Sex: CD-1, MALE, Route: IP
  mutagenic call: inactive; negative
End Point: IN VIVO CHROMOSOMAL ABERRATIONS, Test System: SPERMATOGONIAL CELLS, Species: MOUSE, Strain/Sex: CD-1, MALE, Route: IP
  mutagenic call: inactive; negative

## c1ccc(N=Nc2ccccc2)cc1
Test System: AMES SALMONELLA TYPHIMURIUM, Strain/Indicator: TA100, Metabolic Activation: NONE, Method: PREINCUBATION
  mutagenic call: inactive; negative
Test System: AMES SALMONELLA TYPHIMURIUM, Strain/Indicator: TA100, Metabolic Activation: RAT, LIVER, MICROSOMES, AROCLOR 1254, Method: PREINCUBATION
  mutagenic call: active; positive
Test System: AMES SALMONELLA TYPHIMURIUM, Strain/Indicator: TA100, Metabolic Activation: RAT, LIVER, MICROSOMES, AZOBENZENE, Method: PREINCUBATION
  mutagenic call: inactive; negative
Test System: AMES SALMONELLA TYPHIMURIUM, Strain/Indicator: TA100, Metabolic Activation: RAT, LIVER, MICROSOMES, Method: PREINCUBATION
  mutagenic call: inactive; negative
[1]
  mutagenic call: active; positive
Test System: AMES SALMONELLA TYPHIMURIUM, Strain/Indicator: TA100, Metabolic Activation: RAT, LIVER, S-9, POLYCHLORINATED BIPHENYLS, Method: PREINCUBATION
  mutagenic call: active; positive

## OCCNc1ccc(N=Nc2ccc(N(CCO)CCO)cc2)cc1
Test System: AMES SALMONELLA TYPHIMURIUM, Strain/Indicator: TA98, Metabolic Activation: HAMSTER, LIVER, S-9, AROCLOR 1254, Method: STANDARD PLATE
  mutagenic call: inactive; negative
[2]
  mutagenic call: inactive; negative
Test System: AMES SALMONELLA TYPHIMURIUM, Strain/Indicator: TA98, Metabolic Activation: RAT, LIVER, S-9, AROCLOR 1254, Method: PREINCUBATION
  mutagenic call: inactive; negative
Test System: AMES SALMONELLA TYPHIMURIUM, Strain/Indicator: TA98, Metabolic Activation: RAT, LIVER, S-9, AROCLOR 1254, Method: STANDARD PLATE
  mutagenic call: inactive; negative
[3]
  mutagenic call: inactive; negative
[1]
  mutagenic call: inactive; negative
Test System: AMES SALMONELLA TYPHIMURIUM, Strain/Indicator: TA1535, Metabolic Activation: NONE, Method: STANDARD PLATE
  mutagenic call: inactive; negative
Test System: AMES SALMONELLA TYPHIMURIUM, Strain/Indicator: TA1535, Metabolic Activation: RAT, LIVER, S-9, AROCLOR 1254, Method: STANDARD PLATE
  mutagenic call: inactive; negative
Test System: AMES SALMONELLA TYPHIMURIUM, Strain/Indicator: TA1537, Metabolic Activation: NONE, Method: STANDARD PLATE
  mutagenic call: inactive; negative
Test System: AMES SALMONELLA TYPHIMURIUM, Strain/Indicator: TA1537, Metabolic Activation: RAT, LIVER, S-9, AROCLOR 1254, Method: STANDARD PLATE
  mutagenic call: inactive; negative
Test System: AMES SALMONELLA TYPHIMURIUM, Strain/Indicator: TA1538, Metabolic Activation: NONE, Method: STANDARD PLATE
  mutagenic call: inactive; negative
Test System: AMES SALMONELLA TYPHIMURIUM, Strain/Indicator: TA1538, Metabolic Activation: RAT, LIVER, S-9, AROCLOR 1254, Method: STANDARD PLATE
  mutagenic call: inactive; negative

## C[C@@H]1CC2c3cc(Br)cc4c3c(cn4CC3CC3)C[C@H]2N(C)C1 (some centres undefined)
[1]
  mutagenic call: inactive; negative

## Oc1ccc2ccc3[nH]c4ccc5ccccc5c4c3c2c1
[2]
  mutagenic call: active; positive
Test System: AMES SALMONELLA TYPHIMURIUM, Strain/Indicator: TA98, Metabolic Activation: RAT, LIVER, S-9, 3-METHYLCHOLANTHRENE, Method: STANDARD PLATE
  mutagenic call: active; positive
[3]
  mutagenic call: active; positive
Test System: AMES SALMONELLA TYPHIMURIUM, Strain/Indicator: TA100, Metabolic Activation: RAT, LIVER, S-9, 3-METHYLCHOLANTHRENE, Method: STANDARD PLATE
  mutagenic call: active; positive
Test System: AMES SALMONELLA TYPHIMURIUM, Strain/Indicator: TM677, Metabolic Activation: NONE, Method: PREINCUBATION
  mutagenic call: inactive; negative
Test System: AMES SALMONELLA TYPHIMURIUM, Strain/Indicator: TM677, Metabolic Activation: RAT, LIVER, S-9, 3-METHYLCHOLANTHRENE (1%), Method: PREINCUBATION
  mutagenic call: active; positive
Test System: AMES SALMONELLA TYPHIMURIUM, Strain/Indicator: TM677, Metabolic Activation: RAT, LIVER, S-9, 3-METHYLCHOLANTHRENE (10%), Method: PREINCUBATION
  mutagenic call: active; positive
Test System: AMES SALMONELLA TYPHIMURIUM, Strain/Indicator: TM677, Metabolic Activation: RAT, LIVER, S-9, AROCLOR 1254 (10%), Method: PREINCUBATION
  mutagenic call: active; positive

## CN(C)CCCNc1c2ccccc2nc2c(N(CCO)CCO)ccc([N+](=O)[O-])c12
[2]
  mutagenic call: active; positive
[3]
  mutagenic call: active; positive
